Source: US8557821B2 (priority 2009, dated 2013)
“And” between values parts separate entries of the source, which are not always exact repeats. Equal values may be shown once.

Columns and labels:
Plasmopara viticola = experiment: Plasmopara viticola/Grape/Leaf Disc Preventative (Grape Downy Mildew); assay type: in vivo; settings: foliar, grape vine leaf disks, inoculated 1 day after application, assessed 6-8 days after application, read-out: disease control
Description: Plasmopara viticola/Grape/Leaf Disc Preventative (Grape Downy Mildew)
Grape vine leaf disks are placed on water agar in multiwell plates (24-well format) and sprayed with the formulated test compound diluted in water. The leaf disks are inoculated with a spore suspension of the fungus 1 day after application. The inoculated leaf disks are incubated at 19° C. and 80% rh under a light regime of 12 h light/12 h darkness in a climate cabinet and the activity of a compound is assessed as percent disease control compared to untreated when an appropriate level of disease damage appears in untreated check leaf disks (6-8 days after application).

Phytophthora infestans = experiment: whole plant or invertebrate; assay type: in vivo; settings: in Solanum lycopersicum, foliar, read-out: disease control

SMILES: Cc1cc(C(F)(F)F)nn1CC(=O)N1CCC(c2nc(NC(=O)[C@@H]3CCCc4ccccc43)cs2)CC1 [I.g.001, (R)-1,2,3,4-tetrahydro-naphthalene-1-carboxylic acid (2-{1-[2-(5-methyl-3-trifluoromethyl-pyrazol-1-yl)-acetyl]-piperidin-4-yl}-thiazol-4-yl)amide]
- pest or weed control at 200 ppm (Plasmopara viticola): ≥ 80%
- melting point: 175 °C
- pest or weed control at 200 ppm (Phytophthora infestans): ≥ 80%

SMILES: Cc1cc(C(F)(F)F)nn1CC(=O)N1CCC(c2nc(NC(=O)C3CCCc4ccccc43)cs2)CC1 (centres unmarked) [I.g.011, 1,2,3,4-tetrahydro-naphthalene-1-carboxylic acid (2-{1-[2-(5-methyl-3-trifluoromethyl-pyrazol-1-yl)-acetyl]-piperidin-4-yl}-thiazol-4-yl)amide]
- pest or weed control at 200 ppm (Plasmopara viticola): ≥ 80%
- melting point: 179 to 181 °C and 179.2 to 181.3 °C
- pest or weed control at 200 ppm (Phytophthora infestans): ≥ 80%

SMILES: Cc1cc(C(F)(F)F)nn1CC(=O)N1CCC(c2nc(NC(=O)OC3CCCc4ccccc43)cs2)CC1 (centres unmarked) [I.g.013, (2-{1-[2-(5-methyl-3-trifluoromethyl-pyrazol-1-yl)-acetyl]-piperidin-4-yl}-thiazol-4-yl)-carbamic acid 1,2,3,4-tetrahydro-naphthalen-1-yl ester]
- pest or weed control at 200 ppm (Plasmopara viticola): ≥ 80%
- pest or weed control at 200 ppm (Phytophthora infestans): ≥ 80%

SMILES: Cc1cc(C(F)(F)F)nn1CC(=O)N1CCC(c2nc(NC(=O)Nc3ccccc3)cs2)CC1 [I.g.024, 1-(2-{1-[2-(5-methyl-3-trifluoromethyl-pyrazol-1-yl)-acetyl]-piperidin-4-yl}-thiazol-4-yl)-3-phenyl-urea]
- pest or weed control at 200 ppm (Plasmopara viticola): ≥ 80%
- melting point: 192.6 °C
- pest or weed control at 200 ppm (Phytophthora infestans): ≥ 80%

SMILES: Cc1ccc(C)c(CC(=O)N2CCC(c3nc(NC(=O)C4CCCc5ccccc54)cs3)CC2)c1 (centres unmarked) [I.g.136, 1,2,3,4-tetrahydro-naphthalene-1-carboxylic acid (2-{1-[2-(2,5-dimethylphenyl)-acetyl]-piperidin-4-yl}-thiazol-4-yl)-amide]
- pest or weed control at 200 ppm (Phytophthora infestans): ≥ 80%

SMILES: Cc1ccc(C)c(CS(=O)(=O)N2CCC(c3nc(NC(=O)c4ccccc4)cs3)CC2)c1 [I.g.246, N-{2-[1-(2,5-Dimethyl-phenylmethanesulfonyl)-piperidin-4-yl]-thiazol-4-yl}-benzamide]
- pest or weed control at 200 ppm (Plasmopara viticola): ≥ 80%
- melting point: 173 to 175 °C

SMILES: Cc1ccccc1CC(=O)N1CCC(c2nc(NC(=O)C3CCCc4ccccc43)cs2)CC1 (centres unmarked) [I.g.386, 1,2,3,4-tetrahydro-naphthalene-1-carboxylic acid {2-[1-(2-o-tolyl-acetyl)-piperidin-4-yl]thiazol-4-yl}-amide]
- pest or weed control at 200 ppm (Plasmopara viticola): ≥ 80%
- melting point: 174 to 175 °C
- pest or weed control at 200 ppm (Phytophthora infestans): ≥ 80%

SMILES: Cc1cc(C(F)(F)F)nn1CC(=O)N1CCC(c2nc(NC(=O)c3cccc(F)c3O)cs2)CC1 [I.g.501, 3-fluoro-2-hydroxy-N-(2-{1-[2-(5-methyl-3-trifluoromethyl-pyrazol-1-yl)-acetyl]-piperidin-4-yl}-thiazol-4-yl)-benzamide]
- pest or weed control at 200 ppm (Plasmopara viticola): ≥ 80%
- pest or weed control at 200 ppm (Phytophthora infestans): ≥ 80%

SMILES: Cc1cc(C(F)(F)F)nn1CC(=O)N1CCC(c2nc(NC(=O)c3cccc(Br)c3O)cs2)CC1 [I.g.502, 3-bromo-2-hydroxy-N-(2-{1-[2-(5-methyl-3-trifluoromethyl-pyrazol-1-yl)-acetyl]-piperidin-4-yl}-thiazol-4-yl)-benzamide]
- melting point: 193 to 195 °C

SMILES: Cc1cc(C(F)(F)F)nn1CC(=O)N1CCC(c2nc(NC(=O)c3ccccc3O)cs2)CC1 [I.g.503, 2-hydroxy-N-(2-{1-[2-(5-methyl-3-trifluoromethyl-pyrazol-1-yl)-acetyl]-piperidin-4-yl}-thiazol-4-yl)-benzamide]
- pest or weed control at 200 ppm (Plasmopara viticola): ≥ 80%
- pest or weed control at 200 ppm (Phytophthora infestans): ≥ 80%

SMILES: Cc1ccc(S(=O)(=O)Nc2ccccc2C(=O)Nc2csc(C3CCN(C(=O)Cn4nc(C(F)(F)F)cc4C)CC3)n2)cc1 [I.g.508, N-(2-{1-[2-(5-methyl-3-trifluoromethyl-pyrazol-1-yl)-acetyl]-piperidin-4-yl}-thiazol-4-yl)-2-(toluene-4-sulfonylamino)-benzamide]
- pest or weed control at 200 ppm (Plasmopara viticola): ≥ 80%
- pest or weed control at 200 ppm (Phytophthora infestans): ≥ 80%

SMILES: COc1cccc(O)c1C(=O)Nc1csc(C2CCN(C(=O)Cn3nc(C(F)(F)F)cc3C)CC2)n1 [I.g.509, 2-methoxy-6-hydroxy-N-(2-{1-[2-(5-methyl-3-trifluoromethyl-pyrazol-1-yl)-acetyl]-piperidin-4-yl}-thiazol-4-yl)-benzamide]
- pest or weed control at 200 ppm (Plasmopara viticola): ≥ 80%
- pest or weed control at 200 ppm (Phytophthora infestans): ≥ 80%

SMILES: Cc1cc(C(F)(F)F)nn1CC(=O)N1CCC(c2nc(NC(=O)c3c(O)cccc3F)cs2)CC1 [I.g.510, 2-fluoro-6-hydroxy-N-(2-{1-[2-(5-methyl-3-trifluoromethyl-pyrazol-1-yl)-acetyl]-piperidin-4-yl}-thiazol-4-yl)-benzamide]
- pest or weed control at 200 ppm (Plasmopara viticola): ≥ 80%
- pest or weed control at 200 ppm (Phytophthora infestans): ≥ 80%

SMILES: COc1cccc(C(=O)Nc2csc(C3CCN(C(=O)Cn4nc(C(F)(F)F)cc4C)CC3)n2)c1O [I.g.511, 3-methoxy-2-hydroxy-N-(2-{1-[2-(5-methyl-3-trifluoromethyl-pyrazol-1-yl)-acetyl]-piperidin-4-yl}-thiazol-4-yl)-benzamide]
- pest or weed control at 200 ppm (Phytophthora infestans): ≥ 80%

SMILES: Cc1cc(C(F)(F)F)nn1CC(=O)N1CCC(c2nc(N(C)C(=O)C3CCCc4ccccc43)cs2)CC1 (centres unmarked) [I.h.011, 1,2,3,4-tetrahydro-naphthalene-1-carboxylic acid methyl-(2-{1-[2-(5-methyl-3-trifluoromethyl-pyrazol-1-yl)-acetyl]-piperidin-4-yl}-thiazol-4-yl)-amide]
- pest or weed control at 200 ppm (Phytophthora infestans): ≥ 80%

SMILES: Cc1cc(C(F)(F)F)nn1CC(=O)N1CCN(c2nc(NC(=O)C3CCCc4ccccc43)cs2)CC1 (centres unmarked) [I.n.011, 1,2,3,4-Tetrahydro-naphthalene-1-carboxylic acid (2-{4-[2-(5-methyl-3-trifluoromethyl-pyrazol-1-yl)acetyl]-piperazin-1-yl}-thiazol-4-yl)amide]
- pest or weed control at 200 ppm (Plasmopara viticola): ≥ 80%
- melting point: 207 to 209 °C
- pest or weed control at 200 ppm (Phytophthora infestans): ≥ 80%

SMILES: Cc1cc(C(F)(F)F)nn1CC(=O)N1CCN(c2nc(NC(=O)c3ccccc3)cs2)CC1 [I.n.021, N-(2-{4-[2-(5-methyl-3-trifluoromethyl-pyrazol-1-yl)-acetyl]-piperazin-1-yl}-thiazol-4-yl)-benzamide]
- pest or weed control at 200 ppm (Plasmopara viticola): ≥ 80%
- pest or weed control at 200 ppm (Phytophthora infestans): ≥ 80%
